Drawing on patent US20260109707A1, “HETEROBIFUNCTIONAL COMPOUNDS AND METHODS OF TREATING DISEASE” (Halda Therapeutics OpCo. Inc., priority 2022, published 2026), this text covers GI50 for 24 compounds.

In experiment [1] the test system is T-Rex 293 cell line SC3 cells having increased expression of androgen receptor protein due to exposure to doxycycline. Description: Cellular growth inhibition assay, T-Rex 293 SC3 cells with doxycycline (CellTiter-Glo, 72 hours). It is filed as cell-based. Particulars: T-Rex 293 SC3 cells with increased androgen receptor expression due to doxycycline (10 ng/mL). A digest of the protocol:
(§1)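 Growth inhibition is measured in an inducible AR-expressing T-Rex 293 clone, SC3, cultured with or without 10 ng/mL doxycycline in hormone-depleted medium. Test compounds are applied for 72 hours. GI50 values derive from CellTiter-Glo 2.0 signal fitted by four-parameter regression.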

The test system of experiment [2] is T-Rex 293 cell line SC3 cells lacking increased expression of androgen receptor protein. Description: Cellular growth inhibition assay, T-Rex 293 SC3 cells without doxycycline (CellTiter-Glo, 72 hours). It is filed as cell-based. To be noted: T-Rex 293 cell line SC3 cells not exposed to doxycycline (lacking increased androgen receptor expression). A digest of the protocol:
as §1

The subject of the next experiment is VCaP cells. Description: Cellular growth inhibition assay for VCaP cells (CellTiter-Glo, 72 hours). Type of experiment: cell-based, human. The gist of the method:
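Luminescent viability signal after 72 h of compound exposure gave GI50 values by four-parameter nonlinear regression. Compounds were added in 0.5% DMSO to cells plated 24 h earlier at 5000/well in DMEM containing 10% FBS.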

Like-named read-outs stand apart in the source and are kept apart here.

As for `Cc1sc2c(c1C)C(c1ccc(OC3CCC4(C3)CN(c3ccc(C(=O)N[C@H]5CC[C@H](Oc6ccc(C#N)c(Cl)c6)CC5)nn3)CCO4)cc1)=N[C@@H](C)c1nnc(C)n1-2` (stereo partly drawn) [I-540], the 50% growth inhibitory concentration (GI50) in experiment [1] was less than 500 nM; in experiment [2], less than 500 nM; with VCaP cells, 1500 to 3000 nM.

Turning to `Cc1sc2c(c1C)C(c1ccc(OC3CCC4(C3)CN(c3ccc(C(=O)N[C@H]5CC[C@H](Oc6ccc(C#N)c(Cl)c6)CC5)nn3)CCO4)cc1)=N[C@@H](C)c1nnc(C)n1-2` (stereo partly drawn) [I-541], the figures for the GI50 (in experiment [1]; in experiment [2]; with VCaP cells) were less than 500 nM, less than 500 nM and more than 3000 nM, respectively.

Consider `Cc1sc2c(c1C)C(c1ccc(OC3CCC4(C3)CN(c3ccc(C(=O)N[C@H]5CC[C@H](Oc6ccc(C#N)c(Cl)c6)CC5)nn3)CCO4)cc1)=N[C@@H](C)c1nnc(C)n1-2` (stereo partly drawn) [I-542], for which the concentration for 50% growth inhibition (GI50) in experiment [1] was less than 500 nM; in experiment [2], less than 500 nM; with VCaP cells, 1500 to 3000 nM.

Take `Cc1sc2c(c1C)C(c1ccc(OC3CC(CC4CCN(c5ccc(C(=O)N[C@H]6CC[C@H](Oc7ccc(C#N)c(Cl)c7)CC6)nn5)CC4)C3)cc1)=N[C@@H](C)c1nnc(C)n1-2` (stereo partly drawn) [I-543]: the GI50 was less than 500 nM in experiment [1] (72 h); more than 3000 nM in experiment [2] (72 h); less than 500 nM in the experiment on VCaP cells (Homo sapiens, VCaP, 72 h).

In the case of `Cc1sc2c(c1C)C(c1ccc(OC3CC(CC4CCN(c5ccc(C(=O)N[C@H]6CC[C@H](Oc7ccc(C#N)c(Cl)c7)CC6)nn5)CC4)C3)cc1)=N[C@@H](C)c1nnc(C)n1-2` (stereo partly drawn) [I-544], the values for the GI50 (in experiment [1]; in experiment [2]; in the experiment on VCaP cells) were less than 500 nM, more than 3000 nM and less than 500 nM, respectively.

Turning to `Cc1sc2c(c1C)C(c1ccc(N3CC4(CC(C#Cc5ccc(C(=O)N[C@H]6CC[C@H](Oc7ccc(C#N)c(Cl)c7)CC6)nn5)C4)C3)cc1)=N[C@@H](Cc1ncco1)c1nnc(C)n1-2` [I-545], the GI50 in experiment [1] (72 h) is less than 500 nM; in experiment [2] (72 h), less than 500 nM; in the experiment on VCaP cells (Homo sapiens, VCaP, 72 h), less than 500 nM.

Turning to `Cc1sc2c(c1C)C(c1ccc(C#CC3CCC(Cc4ccc(C(=O)N[C@H]5CC[C@H](Oc6ccc(C#N)c(Cl)c6)CC5)nn4)CC3)cc1)=N[C@@H](Cc1ncco1)c1nnc(C)n1-2` (stereo partly drawn) [I-546], the concentration for 50% growth inhibition (GI50) in experiment [1] (72 h) is less than 500 nM; in experiment [2] (72 h), less than 500 nM; in the experiment on VCaP cells (Homo sapiens, VCaP, 72 h), 500 to 1500 nM.

Regarding `Cc1sc2c(c1C)C(c1ccc(CCC3CC4(CCCN(c5ccc(C(=O)N[C@H]6CC[C@H](Oc7ccc(C#N)c(Cl)c7)CC6)nn5)C4)C3)cc1)=NCc1nnc(C)n1-2` (stereo partly drawn) [I-548], the GI50 was less than 500 nM in experiment [1] (72 h); less than 500 nM in experiment [2] (72 h); 1500 to 3000 nM in the experiment with VCaP cells (Homo sapiens, VCaP, 72 h).

With `Cc1sc2c(c1C)C(c1ccc(N3CCC4CN(c5ccc(C(=O)N[C@H]6CC[C@H](Oc7ccc(C#N)c(Cl)c7)CC6)nn5)CCC4C3)cc1)=NC1(CC1)c1nnc(C)n1-2` (stereo partly drawn) [I-549], the concentration for 50% growth inhibition (GI50) is less than 500 nM in experiment [1] (72 h), less than 500 nM in experiment [2] and more than 3000 nM with VCaP cells.

For the compound `Cc1sc2c(c1C)C(c1ccc(N3CC(C4CCN(c5ccc(C(=O)N[C@H]6CC[C@H](Oc7ccc(C#N)c(Cl)c7)CC6)nn5)C4)C3)cc1)=NC1(CC1)c1nnc(C)n1-2` (stereo partly drawn) [I-550], the GI50 is less than 500 nM in experiment [1] (72 h); less than 500 nM in experiment [2]; less than 500 nM with VCaP cells (Homo sapiens, VCaP, 72 h).

`Cc1sc2c(c1C)C(c1ccc(N3CC(C4CCN(c5ccc(C(=O)N[C@H]6CC[C@H](Oc7ccc(C#N)c(Cl)c7)CC6)nn5)C4)C3)cc1)=NC1(CC1)c1nnc(C)n1-2` (stereo partly drawn) [I-551]: the GI50 in experiment [1] was less than 500 nM; in experiment [2] it was more than 3000 nM; with VCaP cells, less than 500 nM.

Regarding `Cc1sc2c(c1C)C(c1ccc(C3CN(C4CCN(c5ccc(C(=O)N[C@H]6CC[C@H](Oc7ccc(C#N)c(Cl)c7)CC6)nn5)CC4)C3)cc1)=NC1(CC1)c1nnc(C)n1-2` [I-552], the 50% growth inhibitory concentration (GI50) in experiment [1] (72 h) was less than 500 nM; in experiment [2] (72 h), 1500 to 3000 nM; with VCaP cells (Homo sapiens, VCaP, 72 h), more than 3000 nM.

Consider `Cc1sc2c(c1C)C(c1ccc(C3CCC4(CCN(c5ccc(C(=O)N[C@H]6CC[C@H](Oc7ccc(C#N)c(Cl)c7)CC6)nn5)CC4)C3)nc1)=N[C@@H](C)c1nnc(C)n1-2` (stereo partly drawn) [I-553], for which the GI50 (in experiment [1] (72 h); in experiment [2]; in the experiment with VCaP cells) was less than 500 nM throughout.

Take `Cc1sc2c(c1C)C(c1ccc(N3CCC4CN(c5ccc(C(=O)N[C@H]6CC[C@H](Oc7ccc(C#N)c(Cl)c7)CC6)nn5)CCC4C3)cc1)=N[C@@H](C)c1nnc(C)n1-2` (stereo partly drawn) [I-554]: the 50% growth inhibitory concentration (GI50) was less than 500 nM in experiment [1] (72 h); more than 3000 nM in experiment [2]; 500 to 1500 nM with VCaP cells (Homo sapiens, VCaP, 72 h).

On to `Cc1sc2c(c1C)C(c1ccc(N3CC(C4CCN(c5ccc(C(=O)N[C@H]6CC[C@H](Oc7ccc(C#N)c(Cl)c7)CC6)nn5)C4)C3)cc1)=N[C@@H](C)c1nnc(C)n1-2` (stereo partly drawn) [I-555], for which the 50% growth inhibitory concentration (GI50) in experiment [1] (72 h) was less than 500 nM; in experiment [2] (72 h), less than 500 nM; in the experiment with VCaP cells (Homo sapiens, VCaP, 72 h), less than 500 nM.

On to `Cc1sc2c(c1C)C(c1ccc(N3CC(C4CCN(c5ccc(C(=O)N[C@H]6CC[C@H](Oc7ccc(C#N)c(Cl)c7)CC6)nn5)C4)C3)cc1)=N[C@@H](C)c1nnc(C)n1-2` (stereo partly drawn) [I-556], for which the GI50 (in experiment [1]; in experiment [2]; in the experiment with VCaP cells) was less than 500 nM each time.

`Cc1sc2c(c1C)C(c1ccc(COC3CCC4(C3)CN(c3ccc(C(=O)N[C@H]5CC[C@H](Oc6ccc(C#N)c(Cl)c6)CC5)nn3)CCO4)cc1)=N[C@@H](C)c1nnc(C)n1-2` (stereo partly drawn) [I-557]: the concentration for 50% growth inhibition (GI50) in experiment [1] (72 h) is less than 500 nM; in experiment [2] it was less than 500 nM; in the experiment on VCaP cells (Homo sapiens, VCaP, 72 h), less than 500 nM.

For `Cc1sc2c(c1C)C(c1ccc(COC3CCC4(C3)CN(c3ccc(C(=O)N[C@H]5CC[C@H](Oc6ccc(C#N)c(Cl)c6)CC5)nn3)CCO4)cc1)=N[C@@H](C)c1nnc(C)n1-2` (stereo partly drawn) [I-558], the GI50 (in experiment [1]; in experiment [2]; with VCaP cells) was less than 500 nM throughout.

Take `Cc1sc2c(c1C)C(c1ccc(COC3CCC4(C3)CN(c3ccc(C(=O)N[C@H]5CC[C@H](Oc6ccc(C#N)c(Cl)c6)CC5)nn3)CCO4)cc1)=N[C@@H](C)c1nnc(C)n1-2` (stereo partly drawn) [I-559]: the GI50 (in experiment [1]; in experiment [2]; in the experiment on VCaP cells) was less than 500 nM in each case.

Regarding `Cc1sc2c(c1C)C(c1ccc(C3CN(C4CCN(c5ccc(C(=O)N[C@H]6CC[C@H](Oc7ccc(C#N)c(Cl)c7)CC6)nn5)CC4)C3)cc1)=N[C@@H](C)c1nnc(C)n1-2` [I-560], the 50% growth inhibitory concentration (GI50) was less than 500 nM in experiment [1] (72 h); less than 500 nM in experiment [2] (72 h); 1500 to 3000 nM in the experiment with VCaP cells (Homo sapiens, VCaP, 72 h).

Take `Cc1sc2c(c1C)C(c1ccc(OCC3CC4(CCCN(c5ccc(C(=O)N[C@H]6CC[C@H](Oc7ccc(C#N)c(Cl)c7)CC6)nn5)C4)C3)cn1)=NC1(CC1)c1nnc(C)n1-2` (stereo partly drawn) [I-561]: the GI50 in experiment [1] (72 h) is less than 500 nM; in experiment [2], 500 to 1500 nM; with VCaP cells, more than 3000 nM.

With `Cc1sc2c(c1C)C(c1ccc(N3CC(CC4CCCN(c5ccc(C(=O)N[C@H]6CC[C@H](Oc7ccc(C#N)c(Cl)c7)CC6)nn5)C4)C3)cc1)=NC1(CC1)c1nnc(C)n1-2` (stereo partly drawn) [I-562], the concentration for 50% growth inhibition (GI50) was less than 500 nM in experiment [1], less than 500 nM in experiment [2] (72 h) and more than 3000 nM in the experiment with VCaP cells.

With `Cc1sc2c(c1C)C(c1ccc(N3CCC4CN(c5ccc(C(=O)N[C@H]6CC[C@H](Oc7ccc(C#N)c(Cl)c7)CC6)nn5)CCC4C3)cc1)=NC1(CC1)c1nnc(C)n1-2` (stereo partly drawn) [I-563], the figures for the GI50 (in experiment [1]; in experiment [2] (72 h); with VCaP cells) were less than 500 nM, less than 500 nM and 500 to 1500 nM, respectively.

Turning to `Cc1sc2c(c1C)C(c1ccc(N3CCC4CN(c5ccc(C(=O)N[C@H]6CC[C@H](Oc7ccc(C#N)c(Cl)c7)CC6)nn5)CCC4C3)cc1)=NC1(CC1)c1nnc(C)n1-2` (stereo partly drawn) [I-564], the GI50 was less than 500 nM in experiment [1], 500 to 1500 nM in experiment [2] and more than 3000 nM in the experiment on VCaP cells.
